One block for each molecule: values may come before it.
Legend:
Chk1 protein kinase = target: T1, Chk1 protein kinase (Homo sapiens, UniProt O14757); test: Chk1 enzyme inhibitory activity, ADP-Glo kit; type: biochemical; conditions: bounds, unit μM
T1 sequence (O14757 1-476): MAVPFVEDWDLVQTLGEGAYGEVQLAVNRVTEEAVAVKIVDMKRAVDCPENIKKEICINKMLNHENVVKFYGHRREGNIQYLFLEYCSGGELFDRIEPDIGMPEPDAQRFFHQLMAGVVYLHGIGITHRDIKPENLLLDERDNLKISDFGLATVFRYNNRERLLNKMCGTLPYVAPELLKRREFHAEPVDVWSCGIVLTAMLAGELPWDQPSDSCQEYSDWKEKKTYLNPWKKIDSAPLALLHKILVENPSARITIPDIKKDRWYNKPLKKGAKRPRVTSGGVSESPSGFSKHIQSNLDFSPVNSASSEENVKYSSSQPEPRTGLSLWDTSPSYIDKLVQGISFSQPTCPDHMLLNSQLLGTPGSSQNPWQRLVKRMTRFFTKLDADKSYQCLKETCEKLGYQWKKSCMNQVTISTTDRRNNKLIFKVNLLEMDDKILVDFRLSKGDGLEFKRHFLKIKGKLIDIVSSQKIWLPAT
Description: Saurosporine is used as a positive control, the Chk1 enzyme inhibitory activity (IC50) was evaluated using the ADP-Glo kit. […] The phosphorylation process consumes ATP. After the reaction, ADP-Glo™ Reagent consumes the remaining ATP, wherein ADP produced during the reaction can be transformed to ATP by ADP-Glo Detection Reagent. ATP acts as a substrate for the Ultra-Glo™ luciferase catalytic reaction, producing an optical signal. The test compound was dissolved in DMSO to prepare a 10 mM stock solution and diluted to 12 different concentrations in a certain ratio for testing. 1 μL of the test compound and 2 μL of 2.5× Chk1 kinase were added to each well of a 384-well plate, and 2 μL of 1× buffer was added to the control group. After incubation for 10 min at room temperature, 2 μL of 2.5× substrate was added. Ater incubation for 1 h at 37° C., 5 μL. of ADP-Glo™ Reagent was added and the reaction was stopped before incubating again for 1 h at 37° C. 10 μL of ADP-Glo Detection Reagent was added before incubating for 30 min at 37° C., and three parallel wells were set for each sample. […] by luminescence fluorescence microplate reader, and data were calculated using GraphPad Prism 5 software to calculate IC50 values.

[1] = tested on: human gastric cancer cell BGC-823; test: MTS in vitro proliferation inhibition, BGC-823; type: cell-based; conditions: 72 hours, average of three experiments
Source text: (§1) Cell lines: human multiple myeloma cells RPMI 8226, human mantle cell lymphoma cells Mino, Jeko-1, human lymphoma cells Romas, human acute monocytic leukemia cells MV-4-11, human breast cancer cells MCF-7 Human lung cancer cell A549, human prostate cancer cell LnCAP, human gastric cancer cell BGC-823, human colon cancer cell HCT116, Colo205, and human ovarian cancer cell OVCAR-8. Experimental method: using MTS method for in vitro proliferation Inhibitory activity (IC50) of compounds against different tumor cell lines.
(§2) The cells in the logarithmic growth phase were trypsinized, counted, and seeded at a density of 1×10^4 cells/well in a 96-well plate at 100 μL per well before placing in a 37° C. incubator containing 5% CO2 overnight. Six concentration gradients were set for each compound, and three sets of duplicate wells were set for each concentration. After the addition, the cells were cultured for 72 hours, and 20 μL of MTS was added. After incubating for 2 hours at 37° C., the absorbance at 490 nm (L1) was measured with a SpectraMAX 340 microplate reader. The reference wavelength was 690 nm (L2), and the (L1-L2) value was plotted against the different concentrations of the inhibitor. The half inhibitory concentration IC50 was fitted by the formula.

[2] = tested on: human ovarian cancer cell OVCAR-8; test: MTS in vitro proliferation inhibition, OVCAR-8; type: cell-based; conditions: 72 hours, average of three experiments
Source text: as §1, §2

[3] = tested on: human colon cancer cell Colo205; test: MTS in vitro proliferation inhibition, Colo205; type: cell-based; conditions: COLO 205, 72 hours, average of three experiments
Source text: as §1, §2

[4] = tested on: human prostate cancer cell LnCAP; test: MTS in vitro proliferation inhibition, LnCAP; type: cell-based; conditions: 72 hours, average of three experiments
Source text: as §1, §2

[5] = tested on: human acute monocytic leukemia cells MV-4-11; test: MTS in vitro proliferation inhibition, MV-4-11; type: cell-based; conditions: MV4-11, 72 hours, average of three experiments
Source text: as §1, §2

[6] = tested on: human mantle cell lymphoma cells Jeko-1; test: MTS in vitro proliferation inhibition, Jeko-1; type: cell-based; conditions: 72 hours, average of three experiments
Source text: as §1, §2

[7] = tested on: human multiple myeloma cells RPMI 8226; test: MTS in vitro proliferation inhibition, RPMI 8226; type: cell-based; conditions: 72 hours, average of three experiments, read-out: IC50(μM) RPMI8226
Source text: as §1, §2

[8] = tested on: human colon cancer cell HCT116; test: MTS in vitro proliferation inhibition, HCT116; type: cell-based; conditions: HCT-116, 72 hours, average of three experiments
Source text: as §1, §2

[9] = tested on: human lymphoma cells Romas; test: MTS in vitro proliferation inhibition, Romas; type: cell-based; conditions: 72 hours, average of three experiments
Source text: as §1, §2

[10] = tested on: human mantle cell lymphoma cells Mino; test: MTS in vitro proliferation inhibition, Mino; type: cell-based; conditions: 72 hours, average of three experiments
Source text: as §1, §2

[11] = tested on: human breast cancer cells MCF-7; test: MTS in vitro proliferation inhibition, MCF-7; type: cell-based; conditions: MCF7, 72 hours, average of three experiments
Source text: as §1, §2

[12] = tested on: Human lung cancer cell A549; test: MTS in vitro proliferation inhibition, A549; type: cell-based; conditions: 72 hours, average of three experiments
Source text: as §1, §2

IC50 (Chk1 protein kinase): > 10 µM
SMILES: Cc1cc(Nc2ncc(-c3cnn(C)c3)c(NC3CCNCC3)n2)n[nH]1 [Compound 1, 5-(1-methyl-1H-pyrazol-4-yl)-N^2-(3-methylpyrazol-5-yl)-N^4-(piperidin-4-yl)-2,4-diaminopyrimidine]

IC50 (Chk1 protein kinase): > 10 µM
SMILES: Cc1cc(Nc2ncc(-c3cnn(C)c3)c(NC3CCNCC3)n2)no1 [Compound 2, 5-(1-methyl-1H-pyrazol-4-yl)-N^2-(5-methyloxazol-3-yl)-N^4-(piperidin-4-yl)-2,4-diaminopyrimidine]

IC50 [1]: 3.17 µM
IC50 [2]: 4.71 µM
IC50 [3]: 2.77 µM
IC50 [4]: 1.44 µM
IC50 [5]: 0.044 µM
IC50 [6]: 0.342 µM
IC50 [7]: 3.34 µM
IC50 [8]: 2.68 µM
IC50 [9]: 0.536 µM
IC50 [10]: 0.708 µM
IC50 [11]: 1.8 µM
IC50 [12]: 0.774 µM
SMILES: N#Cc1ccc(Nc2ncc(-c3ccco3)c(NC3CCNCC3)n2)cn1 [Compound 17, 5-(furan-2-yl)-N^2-(2-cyanopyridin-5-yl)-N^4-(piperidin-4-yl)-2,4-diaminopyrimidine]

IC50 [1]: 2.11 µM
IC50 [2]: 3.24 µM
IC50 [3]: 1.54 µM
IC50 [4]: 0.842 µM
IC50 [5]: 0.035 µM
IC50 [6]: 0.253 µM
IC50 [7]: 3.6 µM
IC50 [8]: 1.39 µM
IC50 [9]: 0.401 µM
IC50 [10]: 0.608 µM
IC50 [11]: 2.56 µM
IC50 [12]: 1.02 µM
SMILES: Cn1cc(-c2cnc(Nc3ccc(C#N)nc3)nc2N[C@H]2CCCNC2)cn1 [Compound 21, (S)-5-(1-methyl-1H-pyrazol-4-yl)-N^2-(2-cyanopyridin-5-yl)-N^4-(piperidin-3-yl)-2,4-diaminopyrimidine]

IC50 (Chk1 protein kinase): > 10 µM
SMILES: Cn1cc(-c2cnc(Nc3ccc(C#N)cn3)nc2NC2CCNCC2)cn1 [Compound 26, 5-(1-methyl-1H-pyrazol-4-yl)-N^2-(3-cyanopyridin-6-yl)-N^4-(piperidin-4-yl)-2,4-diaminopyrimidine]

IC50 (Chk1 protein kinase): > 10 µM
SMILES: Cn1cc(-c2cnc(Nc3cnc(C#N)cn3)nc2NC2CCNCC2)cn1 [Compound 27, 5-(1-methyl-1H-pyrazol-4-yl)-N^2-(2-cyanopyrazin-5-yl)-N^4-(piperidin-4-yl)-2,4-diaminopyrimidine]

IC50 (Chk1 protein kinase): > 10 µM
SMILES: N#Cc1ccc(Nc2ncc(-c3ccccc3NCC3CCNCC3)cn2)cn1 [Compound 33, 5-(2-(piperidin-4-methyl)aminophenyl)-N-(2-cyanopyridin-5-yl)-2-aminopyrimidine]

IC50 (Chk1 protein kinase): < 1 µM
SMILES: N#Cc1ccc(Nc2ncc(C(F)(F)F)c(NC3CCNCC3)n2)cn1 [Compound 35, 5-trifluoromethyl-N^2-(2-cyanopyridin-5-yl)-N^4-(piperidin-4-yl)-2,4-diaminopyrimidine]

IC50 (Chk1 protein kinase): < 1 µM
SMILES: N#Cc1ccc(Nc2ncc(C(F)(F)F)c(N[C@@H]3CCCNC3)n2)cn1 [Compound 36, (R)-5-trifluoromethyl-N^2-(2-cyanopyridin-5-yl)-N^4-(piperidin-3-yl)-2,4-diaminopyrimidine]

Second part, the molecule before the results:

SMILES: Cc1cc(Nc2ncc(-c3cccs3)c(NC3CCNCC3)n2)n[nH]1 [Compound 3, 5-(thien-2-yl)-N^2-(5-methylpyrazol-3-yl)-N^4-(piperidin-4-yl)-2,4-diaminopyrimidine]
IC50 (Chk1 protein kinase): > 10 µM

SMILES: Cc1cc(Nc2ncc(-c3cccs3)c(NC3CCNCC3)n2)no1 [Compound 4, 5-(thien-2-yl)-N^2-(5-methyloxazol-3-yl)-N^4-(piperidin-4-yl)-2,4-diaminopyrimidine]
IC50 (Chk1 protein kinase): > 10 µM

SMILES: Cc1cc(Nc2ncc(-c3ccco3)c(NC3CCNCC3)n2)n[nH]1 [Compound 5, 5-(furan-2-yl)-N^2-(5-methylpyrazol-3-yl)-N^4-(piperidin-4-yl)-2,4-diaminopyrimidine]
IC50 (Chk1 protein kinase): > 10 µM

SMILES: Cc1cc(Nc2ncc(-c3ccco3)c(NC3CCNCC3)n2)no1 [Compound 6, 5-(furan-2-yl)-N^2-(5-methyloxazol-3-yl)-N^4-(piperidin-4-yl)-2,4-diaminopyrimidine]
IC50 (Chk1 protein kinase): > 10 µM

SMILES: N#Cc1ccc(Nc2ncc(Br)cn2)cn1 [Compound 30, 5-bromo-N-(2-cyanopyridin-5-yl)-2-aminopyrimidine]
IC50 (Chk1 protein kinase): > 10 µM

SMILES: N#Cc1ccc(Nc2ncc(-c3ccccc3N)cn2)cn1 [Compound 31, 5-(2-aminophenyl)-N-(2-cyanopyridin-5-yl)-2-aminopyrimidine]
IC50 (Chk1 protein kinase): > 10 µM

SMILES: N#Cc1ccc(Nc2ncc(C(F)(F)F)c(NCC3CCNCC3)n2)cn1 [Compound 34, 5-trifluoromethyl-N^2-(2-cyanopyridin-5-yl)-N^4-(piperidin-4-methyl)-2,4-diaminopyrimidine]
IC50 (Chk1 protein kinase): < 1 µM

— patent US10822327B2, “2-substituted aromatic ring-pyrimidine derivative and preparation and application thereof” (ZHEJIANG UNIVERSITY, priority 2016, dated 2020)
